Among the test systems are SK-OV-3; ACHN; MDA-N; SW-620; Hs-578T; HT-29; SF-295; CAKI-1; RXF 393; MDA-MB-435; SN12C; MCF7; DU-145; PC-3; HL-60; UACC-257; SK-MEL-5; M14; TK-10; NCI-H522.
Holding throughout (experiment): growth of human tumour cells (NCI), 48 h

Each structure is given as a SMILES string.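 Test compounds were applied to cells in 96-well plates for 48 hours at 5 doses. Here, GI50 denotes the concentration required for 50% inhibition of growth.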 Active and inactive are the calls of the source. Rule as the data show it: active = GI50 up to about 1.1 µM and inactive = higher. Where only a bound is given, the exact number is not on record here.

Turning to `COC(=O)C(CCCCN)NC(C)=O.Cc1ccc(C(=O)Nc2ccc(S(=O)(=O)O)c3cc(S(=O)(=O)O)cc(S(=O)(=O)O)c23)cc1NC(=O)c1cccc(NC(=O)Nc2cccc(C(=O)Nc3cc(C(=O)Nc4ccc(S(=O)(=O)O)c5cc(S(=O)(=O)O)cc(S(=O)(=O)O)c45)ccc3C)c2)c1`, the GI50 with SK-OV-3, with ACHN, in the assay with MDA-N, in the assay on SW-620, with Hs-578T and in the assay on HT-29 was > 50 µM (inactive) in each case. The GI50 is > 50 µM (inactive) with SF-295; > 50 µM (inactive) with CAKI-1; 37.4 µM (inactive) in the assay with RXF 393; > 50 µM (inactive) in the assay with MDA-MB-435; > 50 µM (inactive) in the assay with SN12C; > 50 µM (inactive) in the assay with MCF7. Further, the GI50 with DU-145, in the assay with PC-3, with HL-60, with UACC-257, with SK-MEL-5 and in the assay with M14 was > 50 µM (inactive) in each case.

In the case of `CCCCNCC(=O)O[C@]1(CC)C(=O)OCc2c1cc1n(c2=O)Cc2cc3ccccc3nc2-1`, the GI50 in the assay on SK-OV-3 was 0.658 µM (active); in the assay on ACHN, 0.037 µM (active); in the assay on MDA-N, 2.11 µM (inactive); in the assay on SW-620, 0.0836 µM (active); with TK-10, 6.15 µM (inactive); in the assay with Hs-578T, 31.9 µM (inactive). For the same compound, the GI50 with HT-29 was 0.838 µM (active); with SF-295, 0.0705 µM (active); in the assay with CAKI-1, 0.0647 µM (active); with RXF 393, 0.385 µM (active); in the assay with MDA-MB-435, 1.57 µM (inactive); with SN12C, 0.0622 µM (active). Besides, the GI50 is 0.0998 µM (active) in the assay with MCF7; 0.224 µM (active) in the assay with NCI-H522; 0.0482 µM (active) in the assay with DU-145; 1.85 µM (inactive) in the assay on PC-3; 0.084 µM (active) with HL-60; 0.646 µM (active) with UACC-257. The GI50 in the assay with SK-MEL-5 is 0.277 µM (active); in the assay with M14, 0.231 µM (active).

Consider `CCC/N=C/c1cc(Cc2ccc(O)c(/C=N/CCC)c2)ccc1O`, for which the GI50 in the assay with SK-OV-3 was 18.5 µM (inactive); in the assay on ACHN, 20.7 µM (inactive); in the assay with MDA-N, 2.78 µM (inactive); with SW-620, 3.55 µM (inactive); in the assay on TK-10 it was 11.1 µM (inactive); in the assay with Hs-578T it was 16 µM (inactive). The GI50 was 12.5 µM (inactive) with HT-29; 12.9 µM (inactive) in the assay on SF-295; 21.1 µM (inactive) in the assay with CAKI-1; 16.3 µM (inactive) in the assay on RXF 393; 3.47 µM (inactive) with MDA-MB-435; 3.82 µM (inactive) with SN12C. Moreover, the GI50 in the assay on MCF7 was 2.36 µM (inactive); with NCI-H522, 20.6 µM (inactive); in the assay with DU-145 it was 4.61 µM (inactive); in the assay on PC-3 it was 1.82 µM (inactive); in the assay with HL-60, 2.21 µM (inactive); with UACC-257, 19.1 µM (inactive). Also, the GI50 was 5.51 µM (inactive) with SK-MEL-5 and 2.69 µM (inactive) in the assay with M14.

Turning to `O=C1C(Br)=C(c2ccccc2)O/C1=C/C(=O)c1ccc(Br)cc1`, the GI50 in the assay with ACHN was 38.5 µM (inactive); with MDA-N, 15.5 µM (inactive); in the assay on SW-620, 23.5 µM (inactive); in the assay on TK-10, 37.3 µM (inactive); in the assay with Hs-578T, 50 µM (inactive); in the assay with HT-29, 36.1 µM (inactive). The GI50 in the assay with CAKI-1 is 19 µM (inactive); in the assay on RXF 393, 17.7 µM (inactive); in the assay with MDA-MB-435, 42.1 µM (inactive); with SN12C, 8.75 µM (inactive); in the assay with MCF7, 36.7 µM (inactive); in the assay with NCI-H522, 16.9 µM (inactive). Besides, the GI50 in the assay with DU-145 is > 100 µM (inactive); with PC-3, 14.2 µM (inactive); in the assay with HL-60 it was 13 µM (inactive); in the assay on SK-MEL-5 it was 52.8 µM (inactive); with M14, > 100 µM (inactive).

`CC(=O)OC1CC2(C)C(OC(C)=O)CC1C2(C)C` (centres undefined): the GI50 with SK-OV-3, with ACHN, in the assay on MDA-N, in the assay with SW-620, with TK-10 and with Hs-578T was > 100 µM (inactive) each time. Further, the GI50 in the assay with HT-29, with SF-295, with RXF 393, with MDA-MB-435, in the assay on SN12C and with MCF7 was > 100 µM (inactive) throughout. Besides, the GI50 in the assay on NCI-H522, with DU-145, in the assay on PC-3, with HL-60, in the assay with UACC-257 and with SK-MEL-5 was > 100 µM (inactive) each time. Further, the GI50 with M14 is > 100 µM (inactive).

For the compound `CCCCCCC(N)(CCCCCC)C(=O)Nn1c(C)ccc1C`, the GI50 was > 100 µM (inactive) with SK-OV-3; 6.55 µM (inactive) with ACHN; > 100 µM (inactive) in the assay with MDA-N; > 100 µM (inactive) in the assay on SW-620; > 100 µM (inactive) in the assay on TK-10; 18.8 µM (inactive) in the assay with Hs-578T. The GI50 is 28.4 µM (inactive) with HT-29; > 100 µM (inactive) in the assay on SF-295; 25.7 µM (inactive) with RXF 393; > 100 µM (inactive) in the assay on MDA-MB-435; > 100 µM (inactive) in the assay with SN12C; 14.6 µM (inactive) in the assay with MCF7. Further, the GI50 in the assay on NCI-H522 is 53.8 µM (inactive); with DU-145, > 100 µM (inactive); with PC-3 it was 5.14 µM (inactive); in the assay with HL-60 it was 5.36 µM (inactive); with UACC-257 it was 36.4 µM (inactive); in the assay with SK-MEL-5 it was 21.9 µM (inactive). Further, the GI50 with M14 is > 100 µM (inactive).

For the compound `C=C1[C@H](OC(C)=O)[C@H]2[C@@H](OC(C)=O)[C@@H](C)C[C@]2(C)C(=O)[C@H](C)/C=C/C(C)(C)C(=O)[C@H](OCC(C)C)[C@H]1OC(C)=O`, the GI50 in the assay with SK-OV-3 is > 25 µM (inactive); in the assay with ACHN, > 25 µM (inactive); in the assay with MDA-N it was 14.4 µM (inactive); in the assay on SW-620, > 25 µM (inactive); in the assay with TK-10, > 25 µM (inactive); in the assay with Hs-578T, > 25 µM (inactive). Further, the GI50 in the assay on SF-295 was 22.9 µM (inactive); in the assay with CAKI-1, 24.7 µM (inactive); with RXF 393 it was > 25 µM (inactive); in the assay with MDA-MB-435, 20.7 µM (inactive); in the assay with SN12C it was > 25 µM (inactive); with MCF7, > 25 µM (inactive). In addition, the GI50 with NCI-H522 is > 25 µM (inactive); in the assay with DU-145, > 25 µM (inactive); with PC-3, > 25 µM (inactive); in the assay with HL-60, 7.57 µM (inactive); with UACC-257, > 25 µM (inactive); in the assay on SK-MEL-5, > 25 µM (inactive). In addition, in the assay on M14, the GI50 is > 25 µM (inactive).

In the case of `CCCCCCCCCCCCCCCC[N+](C)(C)CCl`, the GI50 in the assay with SK-OV-3 was 6.87 µM (inactive); in the assay on ACHN, 2.66 µM (inactive); with MDA-N it was 3.72 µM (inactive); in the assay on SW-620, 2.69 µM (inactive); in the assay with TK-10, 2.25 µM (inactive); in the assay with Hs-578T, 1.85 µM (inactive). The GI50 in the assay with HT-29 was 1.59 µM (inactive); in the assay on SF-295, 2.26 µM (inactive); in the assay with CAKI-1, 2.67 µM (inactive); in the assay with RXF 393 it was 1.32 µM (inactive); in the assay with MDA-MB-435, 3.07 µM (inactive); with SN12C it was 3.19 µM (inactive). For the same compound, the GI50 is 2.69 µM (inactive) in the assay with MCF7; 3.78 µM (inactive) in the assay with DU-145; 2.17 µM (inactive) in the assay on PC-3; 0.964 µM (active) with HL-60; 4.71 µM (inactive) in the assay on UACC-257; 1.68 µM (inactive) in the assay with SK-MEL-5. Also, in the assay with M14, the GI50 is 2.31 µM (inactive).

With `CCOC(=O)C(NC(=O)c1ccccc1)(c1ccc(S(=O)(=O)Nc2onc(C)c2C)cc1)C(F)(F)F` (centres undefined), the GI50 with SK-OV-3 is 0.495 µM (active); in the assay on ACHN, > 100 µM (inactive); in the assay with MDA-N it was > 100 µM (inactive); in the assay on SW-620 it was > 100 µM (inactive); in the assay on TK-10 it was > 100 µM (inactive); in the assay on Hs-578T, > 100 µM (inactive). The GI50 with HT-29, in the assay on SF-295, with CAKI-1, in the assay on RXF 393, in the assay with MDA-MB-435 and with SN12C was > 100 µM (inactive) each time. Moreover, the GI50 in the assay on MCF7, with DU-145, in the assay on PC-3, in the assay with HL-60, with UACC-257 and in the assay with SK-MEL-5 was > 100 µM (inactive) each time. The GI50 with M14 was > 100 µM (inactive).

For the compound `COc1cccc2c1OC(c1ccc(Cl)cc1)C([N+](=O)[O-])=C2` (centres undefined), the GI50 in the assay with SK-OV-3 is 3.57 µM (inactive); in the assay on ACHN, 1.46 µM (inactive); in the assay on MDA-N it was 1.42 µM (inactive); in the assay on TK-10, 4.95 µM (inactive); with Hs-578T, 4.2 µM (inactive); in the assay with HT-29, 1.35 µM (inactive). The GI50 in the assay with SF-295 is 3.1 µM (inactive); in the assay with CAKI-1, 3.48 µM (inactive); with RXF 393 it was 1.64 µM (inactive); in the assay with MDA-MB-435, 2.42 µM (inactive); in the assay with SN12C, 2.35 µM (inactive); in the assay with MCF7, 1.2 µM (inactive). For the same compound, the GI50 with NCI-H522 is 1.59 µM (inactive); with DU-145, 3.68 µM (inactive); in the assay with PC-3, 1.66 µM (inactive); with HL-60, > 100 µM (inactive); in the assay on UACC-257, 1.91 µM (inactive); in the assay with SK-MEL-5, 1.53 µM (inactive). Further, the GI50 with M14 is 1.11 µM (active).
